Reference: the supplement of paper PMC10307832

Tests used:
Assay in all cases: relative viability (nuclei count vs DMSO), 5 days (fraction); higher = more cells survive
[1] = compound: Cn1cc(-c2cnn3c(N)c(Br)c([C@@H]4CCCNC4)nc23)cn1 + N=C(N)NC(=N)NCCc1ccccc1 [Phenformin] (partner 250 µM)
Outline: (§1)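 Lung cancer cell lines, seeded in 1536-well plates, were treated the following day by pin tool with a single drug or with five library-drug doses (not always all listed) in √10 steps on top of a fixed anchor-drug dose. Cells were fixed and nuclei stained in one step after 5 days, and nuclei were counted. Relative viability is the nuclei count for treated wells divided by that for vehicle wells, reported as medians of duplicate plates.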

[2] = compound: Cn1cc(-c2cnn3c(N)c(Br)c([C@@H]4CCCNC4)nc23)cn1 + CC(=O)Nc1cccc(-n2c(=O)n(C3CC3)c(=O)c3c(Nc4ccc(I)cc4F)n(C)c(=O)c(C)c32)c1 [Trametinib] (partner 0.02 µM)
Outline: as §1

[3] = compound: Cn1cc(-c2cnn3c(N)c(Br)c([C@@H]4CCCNC4)nc23)cn1 + COc1cccc2cc(-c3nc([C@H]4CC[C@H](C(=O)O)CC4)n4ncnc(N)c34)[nH]c12 [OSI-027] (partner 0.5 µM)
Outline: as §1

[4] = compound: Cn1cc(-c2cnn3c(N)c(Br)c([C@@H]4CCCNC4)nc23)cn1
Outline: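 Only plates meeting two conditions passed: control CV below 25% and at least one doubling. Lung cancer cell lines, kept overnight at 37 °C in 1536-well plates, were pinned with five library-drug doses (not always all listed) √10 apart on vehicle-anchored plates and grown 5 days without medium change. A one-step fix, permeabilisation and Hoechst stain preceded 4× imaging and MetaXpress nuclear counting. Viability equals treated-well nuclei divided by vehicle-well nuclei, as the median over plates.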

Cell Line	relative viability ([1]; first compound 0.05 µM)	relative viability ([1]; first compound 0.1581 µM)	relative viability ([1]; first compound 0.5 µM)	relative viability ([1]; first compound 1.581 µM)	relative viability ([1]; first compound 5 µM)	relative viability ([2]; first compound 0.05 µM)	relative viability ([2]; first compound 0.1581 µM)	relative viability ([2]; first compound 0.5 µM)	relative viability ([2]; first compound 1.581 µM)	relative viability ([2]; first compound 5 µM)	relative viability ([3]; first compound 0.05 µM)	relative viability ([3]; first compound 0.1581 µM)	relative viability ([3]; first compound 0.5 µM)	relative viability ([3]; first compound 1.581 µM)	relative viability ([3]; first compound 5 µM)	relative viability ([4]; 0.05 µM)	relative viability ([4]; 0.1581 µM)	relative viability ([4]; 0.5 µM)	relative viability ([4]; 1.581 µM)	relative viability ([4]; 5 µM)
NCI-H441	0.785	1.15	0.915	0.841	0.727	0.431	0.491	0.426	0.337	0.429	0.614	0.814	0.821	0.565	0.609	1.28	1.26	1.15	0.862	1.31
NCI-H460	0.493	0.512	0.456	0.176	0.0895	0.152	0.209	0.0974	0.0913	0.0615	0.725	0.765	0.515	0.203	0.0935	0.946	1.1	0.993	0.952	0.811
NCI-H520	0.52	0.587	0.596	0.461	0.348	0.685	0.642	0.591	0.699	0.542	0.214	0.215	0.269	0.265	0.288	0.897	0.998	0.899	0.904	0.717
NCI-H522	0.69	0.625	0.642	0.669	0.664	0.852	0.754	0.699	0.802	0.579	0.344	0.685	0.748	0.681	0.661	0.927	0.986	0.879	0.828	1.02
NCI-H596	0.865	0.825	0.729	0.561	0.691	0.899	0.832	0.886	0.768	0.832	0.833	0.87	0.643	0.654	0.719	0.985	1.15	0.887	0.916	0.766
NCI-H647	0.367	0.491	0.598	0.177	0.215	0.52	0.44	0.403	0.373	0.313	0.66	0.718	0.612	0.588	0.479	0.937	1.07	0.972	0.769	0.417
NCI-H650	0.426	0.413	0.447	0.486	0.399	0.913	1.01	0.957	0.901	0.82	0.571	0.503	0.54	0.476	0.485	0.994	0.875	1.03	0.844	0.715
NCI-H661	0.273	0.259	0.29	0.283	0.276	0.562	0.59	0.495	0.534	0.478	0.711	0.789	0.718	0.513	0.511	1.01	0.977	1.03	1.01	0.772
NCI-H727	0.505	0.501	0.663	0.51	0.238	0.394	0.412	0.366	0.404	0.348	0.551	0.761	0.719	0.711	0.429	0.964	1.07	0.941	0.82	0.57
NCI-H838	0.483	0.66	0.552	0.324	0.554	0.501	0.521	0.496	0.505	0.471	0.386	0.416	0.371	0.367	0.338	0.955	1.06	0.882	0.885	0.878
NCI-H1355	0.428	0.51	0.467	0.366	0.415	0.369	0.426	0.433	0.491	0.417	0.442	0.469	0.416	0.372	0.328	0.973	1.07	1.04	0.919	0.883
NCI-H1395	0.44	0.41	0.435	0.359	0.358	1.22	0.544	0.883	0.569	0.444	0.606	0.574	0.631	0.487	0.338	0.813	0.713	0.926	0.548	0.45
NCI-H1437	0.272	0.296	0.32	0.214	0.229	0.504	0.611	0.562	0.428	0.355	0.826	1.11	0.954	0.803	0.733	1.02	1.11	1.06	0.847	0.832
NCI-H1650	–	0.505	0.403	0.33	0.218	0.559	0.551	0.487	0.405	0.428	–	0.634	0.726	0.467	0.345	0.862	1.08	1.12	0.707	0.494
NCI-H1651	0.331	0.336	0.318	0.223	0.173	0.885	0.925	0.88	0.857	0.461	0.653	0.787	0.618	0.453	0.242	1.01	0.993	0.917	0.783	0.503
NCI-H1666	0.536	0.552	0.573	0.549	0.593	0.92	0.867	0.892	0.959	0.71	0.827	0.966	0.913	0.812	0.66	1.02	1.04	1.02	0.981	0.875

Cell Line	relative viability ([1]; first compound 0.05 µM)	relative viability ([1]; first compound 0.1581 µM)	relative viability ([1]; first compound 0.5 µM)	relative viability ([1]; first compound 1.581 µM)	relative viability ([1]; first compound 5 µM)	relative viability ([2]; first compound 0.05 µM)	relative viability ([2]; first compound 0.1581 µM)	relative viability ([2]; first compound 0.5 µM)	relative viability ([2]; first compound 1.581 µM)	relative viability ([2]; first compound 5 µM)	relative viability ([3]; first compound 0.05 µM)	relative viability ([3]; first compound 0.1581 µM)	relative viability ([3]; first compound 0.5 µM)	relative viability ([3]; first compound 1.581 µM)	relative viability ([3]; first compound 5 µM)	relative viability ([4]; 0.05 µM)	relative viability ([4]; 0.1581 µM)	relative viability ([4]; 0.5 µM)	relative viability ([4]; 1.581 µM)	relative viability ([4]; 5 µM)
NCI-H1734	0.368	0.457	0.373	0.349	0.319	0.667	0.802	0.665	0.658	0.576	0.59	0.581	0.563	0.54	0.362	0.916	1.1	0.963	0.78	0.793
NCI-H1755	0.629	0.664	0.603	0.652	0.597	0.783	0.802	0.744	0.782	0.765	0.74	0.803	0.715	0.693	0.587	1.07	1.06	1	0.887	0.882
NCI-H1792	0.189	0.345	0.261	0.203	0.236	0.409	0.6	0.536	–	0.513	–	0.91	0.677	0.574	0.719	0.869	1.08	0.96	0.575	0.835
NCI-H1793	0.322	0.465	0.435	0.328	0.252	0.451	0.36	0.367	0.481	0.458	0.286	0.282	0.324	0.309	0.304	1.07	1.12	0.927	0.91	0.786
NCI-H1915	0.344	0.377	0.36	0.357	0.379	0.479	0.313	0.304	0.347	0.301	0.646	0.631	0.566	0.543	0.561	0.984	0.998	0.971	0.868	0.969
NCI-H1944	0.212	0.199	0.198	0.194	0.186	0.406	0.382	0.39	0.374	0.379	0.427	0.454	0.39	0.349	0.278	0.947	1.07	0.929	0.713	0.481
NCI-H1975	0.44	0.435	0.443	0.338	0.356	0.356	0.328	0.326	0.331	0.239	0.895	0.72	0.706	0.554	0.654	1.03	0.922	0.908	0.803	0.847
NCI-H1993	0.522	0.536	0.412	0.481	0.513	0.518	0.467	0.643	0.435	0.511	0.603	0.551	0.389	0.55	0.54	0.846	0.942	0.955	0.716	0.794
NCI-H2009	0.487	0.507	0.453	0.434	0.409	0.272	0.284	0.271	0.252	0.224	0.681	0.709	0.534	0.515	0.422	1.03	1.05	0.981	0.931	0.858
NCI-H2023	0.426	0.368	0.245	0.203	0.129	0.606	0.336	0.416	0.227	0.185	0.438	0.342	0.269	0.159	0.13	0.982	0.89	0.705	0.304	0.167
NCI-H2085	0.692	0.746	0.737	0.626	0.516	0.532	0.664	0.548	0.484	0.287	0.809	0.954	0.78	0.652	0.431	0.996	1.12	1.04	0.932	0.853
NCI-H2087	0.47	0.479	0.483	0.485	0.507	0.151	0.203	0.178	0.164	0.189	0.498	0.696	0.641	0.454	0.503	1.15	1.31	1.02	0.948	0.898
NCI-H2126	0.492	0.543	0.51	0.491	0.47	0.628	0.549	0.548	0.561	0.597	0.715	0.744	0.74	0.673	0.672	0.986	1.07	1	0.899	0.95
NCI-H2170	0.415	0.441	0.429	0.429	0.429	0.973	0.93	0.927	0.763	1.13	0.759	0.801	0.687	0.649	0.653	0.991	1.03	0.93	1.01	1.07
NCI-H2228	0.274	0.256	0.373	0.184	0.194	0.717	0.563	0.5	0.282	0.239	0.689	0.674	0.592	0.458	0.315	1.08	1.1	0.927	0.6	0.554
NCI-H2342	0.578	0.6	0.682	0.533	0.593	0.801	0.9	0.682	0.835	0.777	0.52	0.632	0.585	0.526	0.593	0.974	1.23	1.05	0.947	0.91
